Experimental data: patent publication US7994209B2, “3-phenoxymethylpyrrolidine compounds” (Theravance, Inc., priority 2009, dated 2011)
Marks after values point to notes of the source that are not given here.

Target: T1, hSERT (Homo sapiens, UniProt P31645)
Assay: hSERT membrane radioligand binding assay (3H-citalopram), Assay 1
Details: SERT pKi, hSERT HEK-293 membranes, 1.0 nM 3H-citalopram; values given as lower bounds

T1 sequence (P31645 whole entry): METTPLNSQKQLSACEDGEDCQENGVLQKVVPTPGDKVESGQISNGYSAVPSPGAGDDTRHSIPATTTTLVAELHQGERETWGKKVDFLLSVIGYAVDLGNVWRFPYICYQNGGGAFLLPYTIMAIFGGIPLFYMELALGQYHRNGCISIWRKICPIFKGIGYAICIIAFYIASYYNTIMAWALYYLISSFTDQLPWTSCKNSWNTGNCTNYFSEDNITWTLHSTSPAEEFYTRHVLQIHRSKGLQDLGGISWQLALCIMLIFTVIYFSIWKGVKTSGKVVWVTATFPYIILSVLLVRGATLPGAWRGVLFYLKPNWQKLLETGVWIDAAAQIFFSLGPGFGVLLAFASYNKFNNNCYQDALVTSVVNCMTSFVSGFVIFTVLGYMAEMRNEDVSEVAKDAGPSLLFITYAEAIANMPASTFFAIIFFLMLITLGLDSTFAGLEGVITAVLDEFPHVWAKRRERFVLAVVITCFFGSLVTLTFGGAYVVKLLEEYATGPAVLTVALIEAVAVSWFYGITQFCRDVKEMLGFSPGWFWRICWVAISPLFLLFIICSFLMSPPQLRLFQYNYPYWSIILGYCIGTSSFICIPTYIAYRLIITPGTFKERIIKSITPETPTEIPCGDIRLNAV

| Ki [nM] | Compound |
| --- | --- |
| ≤ 10 | COc1cc(Cl)c(F)cc1O[C@@H](C1CC1)[C@H]1CCNC1 [Example 16-74, (S)-3-[(S)-(4-Chloro-5-fluoro-2-methoxyphenoxy)cyclopropylmethyl]pyrrolidine] |
| ≤ 10 | Fc1cc(Cl)cc(F)c1O[C@H](C1CC1)[C@H]1CCNC1 [Example 16-80, (S)-3-[(R)-(4-Chloro-2,6-difluorophenoxy)cyclopropylmethyl]pyrrolidine] |
| ≤ 10 | Clc1cccc(O[C@@H](C2CC2)[C@H]2CCNC2)c1 [Example 16-84, (S)-3-[(S)-(3-Chlorophenoxy)cyclopropylmethyl]pyrrolidine] |
| ≤ 10 | Clc1cccc(O[C@H](C2CC2)[C@H]2CCNC2)c1 [Example 16-85, (S)-3-[(R)-(3-Chlorophenoxy)cyclopropylmethyl]pyrrolidine] |
| ≤ 10 | Clc1ccc(O[C@@H](C2CC2)[C@H]2CCNC2)cc1Cl [Example 16-87, (S)-3-[(S)cyclopropyl-(3,4-dichlorophenoxy)methyl]pyrrolidine] |
| ≤ 10 | Clc1ccc(O[C@H](C2CC2)[C@H]2CCNC2)cc1Cl [Example 16-88, (S)-3-[(R)cyclopropyl-(3,4-dichlorophenoxy)methyl]pyrrolidine] |
| ≤ 10 | Cc1cc(O[C@@H](C2CC2)[C@H]2CCNC2)ccc1Cl [Example 16-94, (S)-3-[(S)-(4-Chloro-3-methylphenoxy)cyclopropylmethyl]pyrrolidine] |
| ≤ 10 | Cc1cc(O[C@H](C2CC2)[C@H]2CCNC2)ccc1Cl [Example 16-95, (S)-3-[(R)-(4-Chloro-3-methylphenoxy)cyclopropylmethyl]pyrrolidine] |
| ≤ 10 | c1ccc2c(O[C@@H](C3CC3)[C@H]3CCNC3)cccc2c1 [Example 22, (S)-3-[(S)-Cyclopropyl(naphthalen-1-yloxy)methyl]pyrrolidine] |

Same assay, conditions: hSERT HEK-293 membranes, 1.0 nM 3H-citalopram; values given as lower bounds

| Compound | SERT pKi |
| --- | --- |
| (S)-3-[(R)-Cyclopropyl-(2-methyl-3-vinylphenoxy)methyl]pyrrolidine [Example 23-1] | ≧8.0 |

Target: T2, hNET (Homo sapiens, UniProt P23975)
T2 sequence (P23975 whole entry): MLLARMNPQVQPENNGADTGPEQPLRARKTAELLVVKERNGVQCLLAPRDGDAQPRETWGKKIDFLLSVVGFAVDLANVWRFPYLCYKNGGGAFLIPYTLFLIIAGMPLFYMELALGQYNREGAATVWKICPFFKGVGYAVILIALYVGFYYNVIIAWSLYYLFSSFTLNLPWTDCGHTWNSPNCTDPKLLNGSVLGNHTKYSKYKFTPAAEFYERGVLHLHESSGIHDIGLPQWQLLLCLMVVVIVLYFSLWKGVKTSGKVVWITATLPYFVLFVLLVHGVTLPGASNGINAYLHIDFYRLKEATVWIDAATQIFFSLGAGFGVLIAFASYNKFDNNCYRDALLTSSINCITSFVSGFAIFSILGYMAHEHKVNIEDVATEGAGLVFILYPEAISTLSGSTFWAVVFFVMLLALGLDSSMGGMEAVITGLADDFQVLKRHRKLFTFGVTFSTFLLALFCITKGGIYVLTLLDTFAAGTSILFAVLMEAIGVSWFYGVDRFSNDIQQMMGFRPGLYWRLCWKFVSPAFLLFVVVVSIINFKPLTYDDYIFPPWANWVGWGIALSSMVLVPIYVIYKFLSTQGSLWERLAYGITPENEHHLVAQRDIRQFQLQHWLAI
Assay: fluorescence-based norepinephrine reuptake inhibition assay (Tsuruda et al. 2010; data indicated by an asterisk)
Type: cell-based
Parameters: expressed in transfected cells; host or cells: HEK-293
Details: norepinephrine reuptake inhibition, fluorescence-based assay (values with asterisk)

| Compound | NET pIC50 |
| --- | --- |
| (S)-3-[(R)-Cyclopropyl-(2-methyl-3-vinylphenoxy)methyl]pyrrolidine [Example 23-1] | ≧8.0* |

Same assay, conditions: norepinephrine reuptake inhibition, fluorescence-based assay (values with asterisk); read-out: NET pIC50 (converted)

| IC50 [nM] | Compound |
| --- | --- |
| ≤ 10 | COc1cc(Cl)c(F)cc1O[C@@H](C1CC1)[C@H]1CCNC1 [Example 16-74, (S)-3-[(S)-(4-Chloro-5-fluoro-2-methoxyphenoxy)cyclopropylmethyl]pyrrolidine] |
| ≤ 10 | Fc1cc(Cl)cc(F)c1O[C@H](C1CC1)[C@H]1CCNC1 [Example 16-80, (S)-3-[(R)-(4-Chloro-2,6-difluorophenoxy)cyclopropylmethyl]pyrrolidine] |
| ≤ 10 | Clc1cccc(O[C@@H](C2CC2)[C@H]2CCNC2)c1 [Example 16-84, (S)-3-[(S)-(3-Chlorophenoxy)cyclopropylmethyl]pyrrolidine] |
| ≤ 10 | Clc1cccc(O[C@H](C2CC2)[C@H]2CCNC2)c1 [Example 16-85, (S)-3-[(R)-(3-Chlorophenoxy)cyclopropylmethyl]pyrrolidine] |
| ≤ 10 | Clc1ccc(O[C@@H](C2CC2)[C@H]2CCNC2)cc1Cl [Example 16-87, (S)-3-[(S)cyclopropyl-(3,4-dichlorophenoxy)methyl]pyrrolidine] |
| ≤ 10 | Clc1ccc(O[C@H](C2CC2)[C@H]2CCNC2)cc1Cl [Example 16-88, (S)-3-[(R)cyclopropyl-(3,4-dichlorophenoxy)methyl]pyrrolidine] |
| ≤ 10 | Cc1cc(O[C@@H](C2CC2)[C@H]2CCNC2)ccc1Cl [Example 16-94, (S)-3-[(S)-(4-Chloro-3-methylphenoxy)cyclopropylmethyl]pyrrolidine] |
| ≤ 100 | Cc1cc(O[C@H](C2CC2)[C@H]2CCNC2)ccc1Cl [Example 16-95, (S)-3-[(R)-(4-Chloro-3-methylphenoxy)cyclopropylmethyl]pyrrolidine] |
| ≤ 10 | c1ccc2c(O[C@@H](C3CC3)[C@H]3CCNC3)cccc2c1 [Example 22, (S)-3-[(S)-Cyclopropyl(naphthalen-1-yloxy)methyl]pyrrolidine] |

Target: T1, hSERT
Assay: fluorescence-based serotonin reuptake inhibition assay (Tsuruda et al. 2010; data indicated by an asterisk)
Type: cell-based
Parameters: expressed in transfected cells; host or cells: HEK-293
Details: fluorescence-based assay (values with asterisk)

| Compound | SERT pIC50 |
| --- | --- |
| (S)-3-[(R)-Cyclopropyl-(2-methyl-3-vinylphenoxy)methyl]pyrrolidine [Example 23-1] | ≧8.0* |

Same assay, conditions: fluorescence-based assay (values with asterisk), read-out: SERT pIC50 (converted)

| IC50 [nM] | Compound |
| --- | --- |
| ≤ 10 | COc1cc(Cl)c(F)cc1O[C@@H](C1CC1)[C@H]1CCNC1 [Example 16-74, (S)-3-[(S)-(4-Chloro-5-fluoro-2-methoxyphenoxy)cyclopropylmethyl]pyrrolidine] |
| ≤ 10 | Fc1cc(Cl)cc(F)c1O[C@H](C1CC1)[C@H]1CCNC1 [Example 16-80, (S)-3-[(R)-(4-Chloro-2,6-difluorophenoxy)cyclopropylmethyl]pyrrolidine] |
| ≤ 100 | Clc1cccc(O[C@@H](C2CC2)[C@H]2CCNC2)c1 [Example 16-84, (S)-3-[(S)-(3-Chlorophenoxy)cyclopropylmethyl]pyrrolidine] |
| ≤ 100 | Clc1cccc(O[C@H](C2CC2)[C@H]2CCNC2)c1 [Example 16-85, (S)-3-[(R)-(3-Chlorophenoxy)cyclopropylmethyl]pyrrolidine] |
| ≤ 10 | Clc1ccc(O[C@@H](C2CC2)[C@H]2CCNC2)cc1Cl [Example 16-87, (S)-3-[(S)cyclopropyl-(3,4-dichlorophenoxy)methyl]pyrrolidine] |
| ≤ 10 | Clc1ccc(O[C@H](C2CC2)[C@H]2CCNC2)cc1Cl [Example 16-88, (S)-3-[(R)cyclopropyl-(3,4-dichlorophenoxy)methyl]pyrrolidine] |
| ≤ 10 | Cc1cc(O[C@@H](C2CC2)[C@H]2CCNC2)ccc1Cl [Example 16-94, (S)-3-[(S)-(4-Chloro-3-methylphenoxy)cyclopropylmethyl]pyrrolidine] |
| ≤ 10 | Cc1cc(O[C@H](C2CC2)[C@H]2CCNC2)ccc1Cl [Example 16-95, (S)-3-[(R)-(4-Chloro-3-methylphenoxy)cyclopropylmethyl]pyrrolidine] |
| ≤ 10 | c1ccc2c(O[C@@H](C3CC3)[C@H]3CCNC3)cccc2c1 [Example 22, (S)-3-[(S)-Cyclopropyl(naphthalen-1-yloxy)methyl]pyrrolidine] |

Target: T2, hNET
Assay: hNET membrane radioligand binding assay (3H-nisoxetine), Assay 1
Details: not given

| Ki [nM] | Compound |
| --- | --- |
| ≤ 10 | COc1cc(Cl)c(F)cc1O[C@@H](C1CC1)[C@H]1CCNC1 [Example 16-74, (S)-3-[(S)-(4-Chloro-5-fluoro-2-methoxyphenoxy)cyclopropylmethyl]pyrrolidine] |
| ≤ 10 | Fc1cc(Cl)cc(F)c1O[C@H](C1CC1)[C@H]1CCNC1 [Example 16-80, (S)-3-[(R)-(4-Chloro-2,6-difluorophenoxy)cyclopropylmethyl]pyrrolidine] |
| ≤ 10 | Clc1cccc(O[C@@H](C2CC2)[C@H]2CCNC2)c1 [Example 16-84, (S)-3-[(S)-(3-Chlorophenoxy)cyclopropylmethyl]pyrrolidine] |
| ≤ 10 | Clc1cccc(O[C@H](C2CC2)[C@H]2CCNC2)c1 [Example 16-85, (S)-3-[(R)-(3-Chlorophenoxy)cyclopropylmethyl]pyrrolidine] |
| ≤ 10 | Clc1ccc(O[C@@H](C2CC2)[C@H]2CCNC2)cc1Cl [Example 16-87, (S)-3-[(S)cyclopropyl-(3,4-dichlorophenoxy)methyl]pyrrolidine] |
| ≤ 10 | Clc1ccc(O[C@H](C2CC2)[C@H]2CCNC2)cc1Cl [Example 16-88, (S)-3-[(R)cyclopropyl-(3,4-dichlorophenoxy)methyl]pyrrolidine] |
| ≤ 10 | Cc1cc(O[C@@H](C2CC2)[C@H]2CCNC2)ccc1Cl [Example 16-94, (S)-3-[(S)-(4-Chloro-3-methylphenoxy)cyclopropylmethyl]pyrrolidine] |
| ≤ 100 | Cc1cc(O[C@H](C2CC2)[C@H]2CCNC2)ccc1Cl [Example 16-95, (S)-3-[(R)-(4-Chloro-3-methylphenoxy)cyclopropylmethyl]pyrrolidine] |
| ≤ 10 | c1ccc2c(O[C@@H](C3CC3)[C@H]3CCNC3)cccc2c1 [Example 22, (S)-3-[(S)-Cyclopropyl(naphthalen-1-yloxy)methyl]pyrrolidine] |

Same assay, conditions: hNET HEK-293 membranes, 1.0 nM 3H-nisoxetine; values given as lower bounds

| Compound | NET pKi |
| --- | --- |
| (S)-3-[(R)-Cyclopropyl-(2-methyl-3-vinylphenoxy)methyl]pyrrolidine [Example 23-1] | ≧8.0 |

Tested on: SERT and NET
Assay: not given
Details: NET selectivity; cited from earlier work

| Compound | NET selective [fold] |
| --- | --- |
| CNCC[C@@H](Oc1ccccc1C)c1ccccc1 [Atomoxetine] | 10 |

Same assay, conditions: SERT over NET; cited from earlier work

| Compound | selectivity (measured as pKi) for SERT over NET [fold] |
| --- | --- |
| CNCC[C@H](Oc1cccc2ccccc12)c1cccs1 [duloxetine] | 10 |
| CCN(CC)C(=O)C1(c2ccccc2)CC1CN (centres unmarked) [milnacipran] | 2.5 |

Same assay, conditions: Vaishnavi et al. (2004); cited from earlier work

| Compound | affinity for SERT relative to NET |
| --- | --- |
| CNCC[C@H](Oc1cccc2ccccc12)c1cccs1 [duloxetine] | higher affinity for SERT relative to NET |
